Measured values taken from US4568765A, “Isoprenylamine derivatives” (priority 1981, dated 1986).
Read-outs that look alike come from different tables or passages of the source.

Tests used:
[1] = tested on: human interferon; normal diploid cells (fibroblast); assay: Human interferon inducing activity (in vitro), 3H-uridine-uptake inhibition; assay type: cell-based; settings: 25 n molar suspension, radioisotope microassay
Experimental: Interferon was induced according to the method of Edward A. Havell et al. by treating normal diploid cells (fibroblast) originated from human being with each test compound (in the form of ethanol solution diluted with PBS (-), 25 n molar suspension). Using the radioisotope microassay method of H. Ishitsuka et al., interferon was measured in terms of 3H-uridine-uptakeinhibition rate.

[2] = Toxicity (50% lethal dose, intravenous); assay type: in vivo; settings: ddY male mice 20-25 g
From the text: Using ddY male mice weighing 20-25 g, 50% lethal dose of each test compound when intravenously administered was obtained, the results of which are shown in Table 6.

[3] = tested on: vaccinia virus; assay type: in vivo; settings: ICR female mice; 50 mg/kg intraperitoneally 24 hours before i.v. virus inoculation; lesions counted on 8th day; against surfactant solution group
[4] = tested on: tumor cells KN7 -8; assay: Anti-tumor activity (survivors on the 30th day); assay type: in vivo; settings: survivors/group of 6 Balb/c male mice, 5×10^5 KN7 -8 cells i.p., 30 mg/kg i.p. 24 hours before and on 2nd and 5th day after inoculation
Experimental: Groups, each consisting of 6 Balb/c male mice weighing about 20 g, were intraperitoneally administered 5×10^5 of tumor cells KN7 -8. Each test compound suspended in a surfactant solution was intraperitoneally administered (each time at a rate of 30 mg/kg) to the mice 24 hours before inoculation of the tumor cells and on the second day and the fifth day after the inoculation, totalling 3 times, and the anti-tumor activity was evaluated in terms of number of survivors on the 30th day after the inoculation.

[5] = tested on: vaccinia virus; assay type: cell-based; settings: vero cells; 50 n molar concentration

In the case of `CC(C)=CCCC(C)=CCCC(C)=CCCC(C)=CCCC(C)=CCCC(C)=CCCC(C)=CCCC(C)=CCCC(C)=CCCC(C)=CCN(CCN(CCN(CCNCc1ccccc1)Cc1ccccc1)Cc1ccccc1)Cc1ccccc1`, the “Human interferon (in vitro) 3H-uridine-uptake inhibition rate %” value [1] is reported as 23.2%.

`CCNCCN(CC)CCN(CC)CCN(CC)CC=C(C)CCCC(C)CCCC(C)CCCC(C)C` (stereo not shown) showed an LD50 ([2]; mouse, in vivo, iv, read-out: LD50) of 34 mg/kg.

With `CC(C)=CCCC(C)=CCCC(C)=CCCC(C)=CCCC(C)=CCCC(C)=CCCC(C)=CCCC(C)=CCCC(C)=CCCC(C)=CCNCCNCCNCCN` [drawing 16] the “Prevention from vaccinia infection (Pock inhibition rate %)” value (shortened to “Prevention … (Pock inhibition rate %)”) [3] was 87.9%.

With `CC(C)=CCCC(C)=CCCC(C)=CCCC(C)=CCCC(C)=CCCC(C)=CCCC(C)=CCCC(C)=CCCC(C)=CCCC(C)=CCNCCNCCN` [drawing 17] the “Prevention … (Pock inhibition rate %)” value [3] was 51.9%.

With `CC(C)=CCCC(C)=CCCC(C)=CCCC(C)=CCCC(C)=CCCC(C)=CCCC(C)=CCCC(C)=CCCC(C)=CCNCCNCCNCCN` [drawing 18] the “Prevention … (Pock inhibition rate %)” value [3] was 76.1%.

With `CC(C)=CCCC(C)=CCCC(C)=CCCC(C)=CCCC(C)=CCCC(C)=CCCC(C)=CCCC(C)=CCCC(C)=CCCC(C)=CCNCCNCCNCCN` [drawing 19] the “Anti-tumor activity (Survivor on the 30th day)” value (shortened to “Anti-tumor activity”) [4] was 5/6.

With `CC(C)=CCCC(C)=CCCC(C)=CCCC(C)=CCCC(C)=CCCC(C)=CCCC(C)=CCCC(C)=CCCC(C)=CCCC(C)=CCNCCNCCN` [drawing 20] the “Anti-tumor activity” value ([4]; 30 mg/kg) was 1/6.

For `CC(C)=CCCC(C)=CCCC(C)=CCCC(C)=CCCC(C)=CCCC(C)=CCCC(C)=CCCC(C)=CCCC(C)=CCNCCNCCNCCN` [drawing 21], the “Anti-tumor activity” value [4] was 3/6.

For `CC(C)=CCCC(C)=CCCC(C)=CCCC(C)=CCCC(C)=CCCC(C)=CCCC(C)=CCCC(C)=CCCC(C)=CCCC(C)=CCNCCNCCN` [drawing 22], the “Anti-tumor activity” value ([4]; 30 mg/kg) was 2/6.

For `CC(C)=CCCC(C)=CCCC(C)=CCCC(C)=CCCC(C)=CCCC(C)=CCCC(C)=CCCC(C)=CCCC(C)=CCCC(C)=CCNCCNCCN` [drawing 24], the “Human interferon (in vitro) 3H-uridine-uptake inhibition rate %” value [1] was 15.1%.

With `CC(C)=CCCC(C)=CCCC(C)=CCCC(C)=CCCC(C)=CCCC(C)=CCCC(C)=CCCC(C)=CCCC(C)=CCCC(C)=CCNCCNCCNCCN` [drawing 25] the “Anti-vaccinia virus activity (in vitro) (Plaque inhibition rate %)” value [5] was 44.5%.

`CC(C)=CCCC(C)=CCCC(C)=CCCC(C)=CCCC(C)=CCCC(C)=CCCC(C)=CCCC(C)=CCCC(C)=CCCC(C)=CCNCCNCCNCCN` [drawing 27] showed an LD50 [2] of 57 mg/kg.

In the case of `CC(C)=CCCC(C)=CCCC(C)=CCCC(C)=CCCC(C)=CCCC(C)=CCCC(C)=CCCC(C)=CCCC(C)=CCCC(C)=CCNCCNCCNCCN` [drawing 28], the LD50 [2] is reported as 21 mg/kg.
